Laboratory results: article PMC5385487, “Structural insights into the production of 3-hydroxypropionic acid by aldehyde dehydrogenase from Azospirillum brasilense” (Scientific Reports, 2017)

B1: α-ketoglutarate-semialdehyde dehydrogenase from Azospirillum basilensis (AbKGSADH) (enzyme, UniProt Q1JUP4 1-481, looked up)
chain: MANVTYTDTQLLIDGEWVDAASGKTIDVVNPATGKPIGRVAHAGIADLDRALAAAQSGFEAWRKVPAHERAATMRKAAALVRERADAIAQLMTQEQGKPLTEARVEVLSAADIIEWFADEGRRVYGRIVPPRNLGAQQTVVKEPVGPVAAFTPWNFPVNQVVRKLSAALATGCSFLVKAPEETPASPAALLRAFVDAGVPAGVIGLVYGDPAEISSYLIPHPVIRKVTFTGSTPVGKQLASLAGLHMKRATMELGGHAPVIVAEDADVALAVKAAGGAKFRNAGQVCISPTRFLVHNSIRDEFTRALVKHAEGLKVGNGLEEGTTLGALANPRRLTAMASVIDNARKVGASIETGGERIGSEGNFFAPTVIANVPLDADVFNNEPFGPVAAIRGFDKLEEAIAEANRLPFGLAGYAFTRSFANVHLLTQRLEVGMLWINQPATPWPEMPFGGVKDSGYGSEGGPEALEPYLVTKSVTVMAV
notes: α-ketoglutarate-semialdehyde dehydrogenase (KGSADH) of the alternative L-arabinose pathway, Azospirillum brasilense; the limits Met1 and Val481 are those of the domains told for the crystal structure; The vector adds a 6xHis tag and an rTEV protease site at the N-terminus; no cleavage step is described; also called aldehyde dehydrogenase from Azospirillum brasilense; 3-HP producing ALDH; source: …

Tests used:
[1] = target: T1, AbKGSADH (α-ketoglutarate-semialdehyde dehydrogenase) (Azospirillum brasilense, UniProt Q1JUP4); experiment: X-ray crystal structure, […] Å in Table […] ([…] Å in text); conditions: NAD-binding site between N- and C-terminal domains
T1 construct: gene araE; Met1-Val481 modelled; tetramer about 200 kDa

[2] = target: the molecule itself; experiment: crystal structure; apo-form and complex with NAD+; space group P4(3)22, two molecules in the asymmetric unit, tetramer generated by crystallographic two-fold symmetry; crystals from 16% PEG 3350, 0.1 M sodium cacodylate pH 6.5, 0.2 M MgCl2, 295 K

Row | Molecule | X-ray crystal structure, 2.30 Å in Table 1 (2.6 Å in text) [1] | stoichiometry N [2]
1 | NC(=O)c1ccc[n+]([C@@H]2O[C@H](COP(=O)(O)OP(=O)(O)OC[C@H]3O[C@@H](n4cnc5c(N)ncnc54)[C@H](O)[C@@H]3O)[C@@H](O)[C@H]2O)c1 [NAD^+] | determined the crystal structure of the protein in complex with NAD^+ | –
2 | B1 | – | 4
